Reference: patent publication US20220071921A1, “COMPOUNDS FOR PREVENTING AND TREATING SKIN OR MUCOSAL AFFECTIONS HAVING AN INFLAMMATORY COMPONENT” (GIULIANI S.P.A., priority 2018, published 2022)

What was measured:
Dermcidin [1] = assay: Dermcidin immunofluorescent staining in human microdissected scalp hair follicle organ culture; format: cell-based; conditions: 500 μM, 3 and 5 days, ex vivo
Experimental: (§1) Human scalp samples were obtained 1 day after face-lifting procedure (i.e. after overnight transport from collaborating surgeons) and used at the same day for microdissecting human anagen VI scalp HFs. […] Microdissected human scalp HFs were cultured at 37° C. with 5% CO2 in a minimal media of William's E media (WEM, Gibco, Life technologies) supplemented with 2 mM of L-glutamine (Gibco), 10 ng/ml hydrocortisone (Sigma-Aldrich), 10 μg/ml insulin (Sigma-Aldrich) and 1% penicillin/streptomycin mix (Gibco) (WEM). After microdissection, the HFs were first incubated in WEM for 24 hrs for re-equilibration.
(§2) After 24 hours, WEM medium was replaced and HFs were treated with vehicle (0.1% DMSO), sandal pentanol 500 μM, for 3 or 5 days for (immuno-)histology or 6 hours for microarray. Culture medium was replaced every second day and after […], HFs were then embedded in cryomatrix (Fisher Scientific), and snap frozen in liquid nitrogen for (immuno-)histology.
OCT embedded samples were sectioned with a Leica cryostat. Dermicidin protein was detected using tissue sections fixed in 4% paraformaldehyde, pre-incubated with 10% of goat serum, and incubated with a mouse anti-human Dermcidin (Novus Biologicals, G-81, 1:200). Secondary antibody (Goat anti—mouse Alexa fluor 488) incubation was performed at room temperature for 45 min. Counterstaning with DAPI (1 μg/mL) was performed to visualize nuclei.

Dermcidin [2] = assay: Microarray analysis of human microdissected scalp hair follicles; format: cell-based; conditions: sandal pentanol 500 μM, 6 hours, vs vehicle (0.1% DMSO)
Experimental: as §1, §2

## CC1=CCC(CCC(C)C(C)O)C1(C)C (stereo not drawn) [Sandalore, 3-methyl-5-(2,2,3-trimethylcyclopent-3-en-1-yl)pentan-2-ol]
Dermcidin [1]
  Dermcidin protein expression in hair follicle outer root sheath keratinocytes: increased
Dermcidin [2]
  Dermcidin expression increase (microarray): 77.6 folds
  transcripts of AMPs genes (microarray): up-regulated
